US20110038885A1, “CHEMOKINE ANALOGS” (priority 2007, published 2011)
Numbered stars: 1 amine (or outer) side, 2 acyl side, 3 side chain; on linkers, the order of the positions; unused ones are H or OH. Bridge positions count the residues as written; N and C are the ends. Square brackets hold non-standard residues; d marks the D form. Peptide text beside a SMILES is read from it. * marks the point of attachment. Phenylacetyl(4-Me) = Cc1ccc(CC(=O)*)cc1; Glutaryl = O=C(CCCC(=O)[*:2])[*:1]; 1Naphthoyl = O=C(c1cccc2ccccc12)*; Suc = O=C(CCC(=O)[*:2])[*:1]; Isobutyryl = CC(C)C(=O)*; Orn = NCCC[C@H](N)C(=O)O; Dab = NCC[C@H](N)C(=O)O; Dap = NC[C@H](N)C(=O)O; Butyryl = CCCC(=O)*; Bz = O=C(c1ccccc1)*; GABA = NCCCC(=O)O; βAla = NCCC(=O)O

Tested on: MCP-1
Experiment: In vitro chemotaxis (trans-well migration) v MCP-1
Format: cell-based, human
Description: To determine whether an agent inhibits a chemokine-induced activity, such as macrophage recruitment, varying amounts of the agent are mixed with cells in the presence of a known chemoattractant. For example, a range of known concentrations of an agent, e.g., a chemokine peptide, is incubated with a defined number (e.g., 10^4-10^6) of human THP-1 monocyte cells in individual wells of the top compartment of a trans-well plate. Chemokine, at a concentration known to cause significant migration of THP-1 cells in the trans-well migration assay, is placed in the lower compartment of a trans-well plate. Cells are then incubated at 37° C. for a period sufficient to allow migration, e.g., 4 hours. After incubation, the cells are gently removed from the top of the filter with a pipette, 20 μl of 20 mM EDTA in simple PBS is added into each top well, and incubated for 20 minutes at 4° C. The filter is carefully flushed with media using a gentle flow, and removed. A standard curve consisting of a two-fold dilution series of THP-1 cells (in 29 μl) is placed to accurately quantify the number of cells that have migrated. Migrated cells are stained with 3 μl of MTT stock dye solution which is added directly into each well (5 mg/ml in RPMI-1640 without phenol red) (Sigma Chemical Co., St. Louis, Mo., USA) and incubated at 37° C. for 4 hours. The media is carefully aspirated from each well, and the converted dye is solubilized by 20 μl of DMSO. Absorbance of converted dye is measured at a wavelength of 595 nm using an ELISA plate reader. The number of migrated cells in each well is then determined by interpolation of the standard curve (see also Imai et al., J. Biol. Chem., 272:15036, 1997). Any method suitable for counting cells can be used, for example, counting with a hemocytometer, incubation of the cells with MTT (see above), or FACS analysis. A negative control assay is also performed, using TGFβ or another non-chemokine chemoattractant (e.g., IL1β or TNFα). To assess whether the agent is cytotoxic, the same concentrations of agent are incubated with THP-1 cells. Agents which 1) are not cytotoxic at levels which inhibit migration, 2) are ineffective at inhibiting the negative control-induced migration, and 3) reduce or inhibit chemokine-induced THP-1 migration, are agents which fall within the scope of the invention.

| EC50 [nM] | Molecule |
| --- | --- |
| 6 | CC[C@H](C)[C@@H]1NC(=O)[C@H](Cc2c[nH]c3ccccc23)NC(=O)[C@H](CCCCN)NC(=O)[C@@H](NC(=O)[C@@H](CCC(N)=O)NC(C)=O)CSSC[C@@H](C(N)=O)NC(=O)[C@H](CCC(N)=O)NC1=O [Example 3, Ac-DGln-c(Cys-Lys-Trp-Ile-Gln-Cys)-NH2] (Ac-[dQ]CKWIQC-NH2; disulfide 2-7) |
| 7 | CC[C@H](C)[C@@H]1NC(=O)[C@H](Cc2c[nH]c3ccccc23)NC(=O)[C@H](CCCCN)NC(=O)CCCC(=O)NC[C@@H](C(N)=O)NC(=O)[C@H](CCC(N)=O)NC1=O [Example 127, c(Glutaryl-Lys-Trp-Ile-Gln-Dap)-NH2NH2] (KWIQ[Dap]-NH2; linker N-5 via Glutaryl) |
| 66 | CC[C@H](C)[C@@H]1NC(=O)[C@H](Cc2c[nH]c3ccccc23)NC(=O)[C@H](CCCCN)NC(=O)CCC(=O)NCCCC[C@@H](C(N)=O)NC(=O)[C@H](CCC(N)=O)NC1=O [Example 63, c(Succinyl-Lys-Trp-Ile-Gln-Lys)-NH2] (KWIQK-NH2; linker N-5 via Suc) |
| 25 | CC[C@H](C)[C@@H]1NC(=O)[C@H](Cc2c[nH]c3ccccc23)NC(=O)[C@H](CCCCN)NC(=O)CCCNC(=O)CC[C@@H](C(N)=O)NC(=O)[C@H](CCC(N)=O)NC1=O [Example 61, c(Gaba-Lys-Trp-Ile-Gln-Glu)-NH2] ([GABA]KWIQE-NH2; lactam N-6) |
| 15 | CC[C@H](C)[C@@H]1NC(=O)[C@H](Cc2c[nH]c3ccccc23)NC(=O)[C@H](CCCCN)NC(=O)CCC(=O)NC[C@@H](C(N)=O)NC(=O)[C@H](CCC(N)=O)NC1=O [Example 125, c(Succinyl-Lys-Trp-Ile-Gln-Dap)-NH2] (KWIQ[Dap]-NH2; linker N-5 via Suc) |
| 8 | CC[C@H](C)[C@@H]1NC(=O)[C@H](Cc2c[nH]c3ccccc23)NC(=O)[C@H](CCCCN)NC(=O)[C@@H](NC(=O)C(C)C)CCNC(=O)CC[C@@H](C(N)=O)NC(=O)[C@H](CCC(N)=O)NC1=O [Example 107, Isobutyryl-c(Dab-Lys-Trp-Ile-Gln-Glu)-NH2] (Isobutyryl-[Dab]KWIQE-NH2; lactam 1-6) |
| 10 | CC[C@H](C)[C@H](NC(=O)[C@H](Cc1c[nH]c2ccccc12)NC(=O)[C@H](CCCCN)NC(=O)[C@H](CC(=O)O)NC(=O)C(C)C)C(=O)N[C@@H](CCC(N)=O)C(=O)N[C@@H](CCCCN)C(N)=O [Example 201, Isobutyryl-Asp-Lys-Trp-Ile-Gln-Lys-NH2] (Isobutyryl-DKWIQK-NH2) |
| 8 | CC[C@H](C)[C@@H]1NC(=O)[C@H](Cc2c[nH]c3ccccc23)NC(=O)[C@H](CCCCN)NC(=O)[C@@H](NC(C)=O)CCCCNC(=O)C[C@@H](C(N)=O)NC(=O)[C@H](CCC(N)=O)NC1=O [Example 120, Ac-c(Lys-Lys-Trp-Ile-Gln-Asp)-NH2] (Ac-KKWIQD-NH2; lactam 1-6) |
| 20 | CC[C@@H](C)[C@H]1NC(=O)[C@@H](CCC(N)=O)NC(=O)CCNC(=O)C[C@H](C(N)=O)NC(=O)[C@@H](CC(C)C)NC(=O)[C@@H](CC(=O)O)NC(=O)[C@H]2CCCN2C(=O)[C@@H](CCCCN)NC(=O)[C@@H](CCC(N)=O)NC(=O)[C@@H](CCCCN)NC(=O)[C@@H](Cc2c[nH]c3ccccc23)NC1=O [Example 199, c(βAla-D-Gln-D-Ile-D-Trp-D-Lys-D-Gln-D-Lys-D-Pro-D-Asp-D-Leu-D-Asp)-NH2] ([βAla][dQ][dI][dW][dK][dQ][dK][dP][dD][dL][dD]-NH2; lactam N-11) |
| 7 | CC[C@@H](C)[C@H]1NC(=O)[C@@H](CCC(N)=O)NC(=O)[C@H](NC(=O)c2ccccc2)CSSC[C@H](C(N)=O)NC(=O)[C@@H](CCCCN)NC(=O)[C@@H](Cc2c[nH]c3ccccc23)NC1=O [Example 192, Benzoyl-c(D-Cys-D-Gln-D-Ile-D-Trp-D-Lys-D-Cys)-NH2] (Bz-[dC][dQ][dI][dW][dK][dC]-NH2; disulfide 1-6) |
| 25 | N[C@@H](Cc1c[nH]c2ccccc12)C(=O)NCC(=O)NC1CCC(=O)NC1=O (stereo partly drawn) [Example 180, Trp-Gly-α-aminoglutaramide] |
| 6 | CC[C@H](C)[C@@H]1NC(=O)[C@H](Cc2c[nH]c3ccccc23)NC(=O)[C@H](CCCCN)NC(=O)CCC(=O)NCC[C@@H](C(N)=O)NC(=O)[C@H](CCC(N)=O)NC1=O [Example 126, c(Succinyl-Lys-Trp-Ile-Gln-Dab)-NH2] (KWIQ[Dab]-NH2; linker N-5 via Suc) |
| 5 | CC[C@H](C)[C@@H]1NC(=O)[C@H](Cc2c[nH]c3ccccc23)NC(=O)[C@H](CCCCN)NC(=O)[C@@H](NC(C)=O)CCC(=O)NCCC[C@@H](C(N)=O)NC(=O)[C@H](CCC(N)=O)NC1=O [Example 115, Ac-c(Glu-Lys-Trp-Ile-Gln-Orn)-NH2] (Ac-EKWIQ[Orn]-NH2; lactam 1-6) |
| 20 | [aminoPeg10-oxaglutaryl]2-c(D-Cys-D-Gln-D-Ile-D-Trp-D-Lys-D-Gln-D-Lys-D-Pro-D-Asp-D-Leu-D-Cys)-NH2 [Example 186] |
| 10 | CC[C@H](C)[C@@H]1NC(=O)[C@H](Cc2c[nH]c3ccccc23)NC(=O)[C@H](CCCCN)NC(=O)CCCC(=O)NCC[C@@H](C(N)=O)NC(=O)[C@H](CCC(N)=O)NC1=O [Example 128, c(Glutaryl-Lys-Trp-Ile-Gln-Dab)-NH2] (KWIQ[Dab]-NH2; linker N-5 via Glutaryl) |
| 50 | CC[C@H](C)[C@@H]1NC(=O)[C@H](Cc2c[nH]c3ccccc23)NC(=O)[C@H](CCCCN)NC(=O)[C@@H](NC(=O)C(C)C)CC(=O)NCCC[C@@H](C(N)=O)NC(=O)[C@H](CCC(N)=O)NC1=O [Example 99, Isobutyryl-c(Asp-Lys-Trp-Ile-Gln-Orn)-NH2] (Isobutyryl-DKWIQ[Orn]-NH2; lactam 1-6) |
| 66 | CC[C@H](C)[C@@H]1NC(=O)[C@H](Cc2c[nH]c3ccccc23)NC(=O)[C@H](CCCCN)NC(=O)CCC(=O)NCCC[C@@H](C(N)=O)NC(=O)[C@H](CCC(N)=O)NC1=O [Example 62, c(Succinyl-Lys-Trp-Ile-Gln-Orn)-NH2] (KWIQ[Orn]-NH2; linker N-5 via Suc) |
| 30 | CC[C@H](C)[C@@H]1NC(=O)[C@H](Cc2c[nH]c3ccccc23)NC(=O)[C@H](CCCCN)NC(=O)[C@@H](NC(=O)c2cccc3ccccc23)CSSC[C@@H](C(N)=O)NC(=O)[C@H](CCC(N)=O)NC1=O [Example 68, 1-Naphthoyl-c(Cys-Lys-Trp-Ile-Gln-Cys)-NH2] (1Naphthoyl-CKWIQC-NH2; disulfide 1-6) |
| 20 | CC[C@H](C)[C@@H]1NC(=O)[C@H](Cc2c[nH]c3ccccc23)NC(=O)[C@H](CCCCN)NC(=O)[C@@H](NC(C)=O)CC(=O)NCCCC[C@@H](C(N)=O)NC(=O)[C@H](CCC(N)=O)NC1=O [Example 64, Ac-c(Asp-Lys-Trp-Ile-Gln-Lys)-NH2] (Ac-DKWIQK-NH2; lactam 1-6) |
| 30 | CCCC(=O)N[C@@H]1CSSC[C@H](C(N)=O)NC(=O)[C@@H](CCCCN)NC(=O)[C@@H](Cc2c[nH]c3ccccc23)NC(=O)[C@@H](C(C)C)NC(=O)[C@@H](CCC(N)=O)NC1=O [Example 200, Butanyl-c(D-Cys-D-Gln-D-Val-D-Trp-D-Lys-D-Cys)-NH2] (Butyryl-[dC][dQ][dV][dW][dK][dC]-NH2; disulfide 1-6) |
| 10 | CC[C@H](C)[C@@H]1NC(=O)[C@H](Cc2c[nH]c3ccccc23)NC(=O)[C@H](CCCCN)NC(=O)[C@@H](NC(C)=O)CCNC(=O)CC[C@@H](C(N)=O)NC(=O)[C@H](CCC(N)=O)NC1=O [Example 122, Ac-c(Dab-Lys-Trp-Ile-Gln-Glu)-NH2] (Ac-[Dab]KWIQE-NH2; lactam 1-6) |
| 10 | CC[C@H](C)[C@@H]1NC(=O)[C@H](Cc2c[nH]c3ccccc23)NC(=O)[C@H](CCCCN)NC(=O)[C@@H](NC(=O)Cc2ccc(C)cc2)CSSC[C@@H](C(N)=O)NC(=O)[C@H](CCC(N)=O)NC1=O [Example 71, p-Tolylacetyl-c(Cys-Lys-Trp-Ile-Gln-Cys)-NH2] ({Phenylacetyl(4-Me)}-CKWIQC-NH2; disulfide 1-6) |
| 20 | CC[C@@H](C)[C@H]1NC(=O)[C@H](Cc2c[nH]c3ccccc23)NC(=O)[C@H](CCCCN)NC(=O)[C@@H](NC(C)=O)CSSC[C@@H](C(N)=O)NC(=O)[C@H](CCC(N)=O)NC1=O [Example 76, Ac-c(Cys-Lys-Trp-D-Ile-Gln-Cys)-NH2] (Ac-CKW[dI]QC-NH2; disulfide 1-6) |
| 20 | CC[C@@H](C)[C@H]1NC(=O)[C@@H](CCC(N)=O)NC(=O)[C@H](NC(C)=O)CSSC[C@H](C(N)=O)NC(=O)[C@@H](CC(C)C)NC(=O)[C@@H](CC(=O)O)NC(=O)[C@H]2CCCN2C(=O)[C@@H](CCCCN)NC(=O)[C@@H](CCC(N)=O)NC(=O)[C@@H](CCCCN)NC(=O)[C@@H](Cc2c[nH]c3ccccc23)NC1=O [Example 198, Ac-c(D-Cys-D-Gln-D-Ile-D-Trp-D-Lys-D-Gln-D-Lys-D-Pro-D-Asp-D-Leu-D-Cys)-NH2] (Ac-[dC][dQ][dI][dW][dK][dQ][dK][dP][dD][dL][dC]-NH2; disulfide 1-11) |
